Like-named read-outs stand apart in the source and are kept apart here.
Tests used:
[1] = target: Nav 1.5 (Homo sapiens (Human), UniProt Q14524); assay: in-vitro Nav 1.5 PX (IC50); conditions: read-out: Nav 1.5 PX IC50
[2] = target: Nav 1.7 (Homo sapiens (Human), UniProt Q15858); assay: in-vitro Nav 1.7 PX (IC50); format: cell-based
Chain of Nav 1.7 (Q15858 whole entry): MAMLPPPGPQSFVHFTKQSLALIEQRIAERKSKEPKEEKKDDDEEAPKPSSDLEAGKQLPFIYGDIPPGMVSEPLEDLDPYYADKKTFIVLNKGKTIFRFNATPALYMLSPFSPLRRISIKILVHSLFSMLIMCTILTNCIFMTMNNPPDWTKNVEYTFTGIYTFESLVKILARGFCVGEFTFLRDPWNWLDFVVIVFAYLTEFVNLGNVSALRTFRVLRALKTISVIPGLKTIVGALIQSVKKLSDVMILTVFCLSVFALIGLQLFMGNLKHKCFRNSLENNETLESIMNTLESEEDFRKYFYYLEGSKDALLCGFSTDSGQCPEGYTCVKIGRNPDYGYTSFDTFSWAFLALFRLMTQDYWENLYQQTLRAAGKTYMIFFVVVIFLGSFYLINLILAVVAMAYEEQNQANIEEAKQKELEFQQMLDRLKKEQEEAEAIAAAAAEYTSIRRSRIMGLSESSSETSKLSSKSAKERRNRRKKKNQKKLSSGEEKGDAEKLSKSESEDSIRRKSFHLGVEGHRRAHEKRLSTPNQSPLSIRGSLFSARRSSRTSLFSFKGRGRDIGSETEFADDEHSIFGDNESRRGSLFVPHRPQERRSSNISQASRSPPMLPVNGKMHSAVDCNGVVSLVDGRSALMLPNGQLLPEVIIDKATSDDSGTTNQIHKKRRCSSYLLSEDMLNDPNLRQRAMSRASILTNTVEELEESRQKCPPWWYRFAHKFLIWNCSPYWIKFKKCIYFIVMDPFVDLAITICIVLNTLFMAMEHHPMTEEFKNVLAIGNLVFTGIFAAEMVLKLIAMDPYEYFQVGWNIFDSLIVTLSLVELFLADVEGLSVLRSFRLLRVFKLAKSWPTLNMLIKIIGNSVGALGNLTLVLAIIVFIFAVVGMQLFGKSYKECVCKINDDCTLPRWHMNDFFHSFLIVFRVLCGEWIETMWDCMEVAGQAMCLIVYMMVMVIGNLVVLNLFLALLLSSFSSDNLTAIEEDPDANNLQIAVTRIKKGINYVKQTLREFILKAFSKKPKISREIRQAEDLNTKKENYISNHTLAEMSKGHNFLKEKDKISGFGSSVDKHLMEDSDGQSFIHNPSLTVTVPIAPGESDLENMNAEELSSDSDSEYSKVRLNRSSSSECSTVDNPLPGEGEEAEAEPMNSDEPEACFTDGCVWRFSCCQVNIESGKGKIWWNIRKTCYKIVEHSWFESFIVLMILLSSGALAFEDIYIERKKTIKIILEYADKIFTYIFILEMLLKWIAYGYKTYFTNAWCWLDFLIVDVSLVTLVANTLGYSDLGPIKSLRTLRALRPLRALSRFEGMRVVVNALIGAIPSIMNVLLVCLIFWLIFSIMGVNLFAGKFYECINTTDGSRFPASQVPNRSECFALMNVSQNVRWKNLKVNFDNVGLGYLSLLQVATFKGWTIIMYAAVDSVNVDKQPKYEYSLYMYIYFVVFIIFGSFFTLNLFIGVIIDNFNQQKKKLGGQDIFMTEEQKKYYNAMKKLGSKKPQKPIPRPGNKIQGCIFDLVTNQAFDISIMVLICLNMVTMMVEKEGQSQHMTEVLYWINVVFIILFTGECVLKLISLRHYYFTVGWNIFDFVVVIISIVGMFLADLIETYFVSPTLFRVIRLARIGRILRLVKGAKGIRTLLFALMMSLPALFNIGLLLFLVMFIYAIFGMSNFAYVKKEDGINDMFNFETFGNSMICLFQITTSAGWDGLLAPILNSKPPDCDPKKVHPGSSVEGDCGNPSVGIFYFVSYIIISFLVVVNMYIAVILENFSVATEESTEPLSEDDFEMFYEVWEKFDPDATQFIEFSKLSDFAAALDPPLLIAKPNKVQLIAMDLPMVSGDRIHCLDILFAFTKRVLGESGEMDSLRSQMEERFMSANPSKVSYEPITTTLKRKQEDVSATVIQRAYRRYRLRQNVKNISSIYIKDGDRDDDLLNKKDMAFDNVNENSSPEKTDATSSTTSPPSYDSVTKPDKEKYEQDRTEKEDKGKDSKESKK

Chain of Nav 1.5 (Q14524 whole entry): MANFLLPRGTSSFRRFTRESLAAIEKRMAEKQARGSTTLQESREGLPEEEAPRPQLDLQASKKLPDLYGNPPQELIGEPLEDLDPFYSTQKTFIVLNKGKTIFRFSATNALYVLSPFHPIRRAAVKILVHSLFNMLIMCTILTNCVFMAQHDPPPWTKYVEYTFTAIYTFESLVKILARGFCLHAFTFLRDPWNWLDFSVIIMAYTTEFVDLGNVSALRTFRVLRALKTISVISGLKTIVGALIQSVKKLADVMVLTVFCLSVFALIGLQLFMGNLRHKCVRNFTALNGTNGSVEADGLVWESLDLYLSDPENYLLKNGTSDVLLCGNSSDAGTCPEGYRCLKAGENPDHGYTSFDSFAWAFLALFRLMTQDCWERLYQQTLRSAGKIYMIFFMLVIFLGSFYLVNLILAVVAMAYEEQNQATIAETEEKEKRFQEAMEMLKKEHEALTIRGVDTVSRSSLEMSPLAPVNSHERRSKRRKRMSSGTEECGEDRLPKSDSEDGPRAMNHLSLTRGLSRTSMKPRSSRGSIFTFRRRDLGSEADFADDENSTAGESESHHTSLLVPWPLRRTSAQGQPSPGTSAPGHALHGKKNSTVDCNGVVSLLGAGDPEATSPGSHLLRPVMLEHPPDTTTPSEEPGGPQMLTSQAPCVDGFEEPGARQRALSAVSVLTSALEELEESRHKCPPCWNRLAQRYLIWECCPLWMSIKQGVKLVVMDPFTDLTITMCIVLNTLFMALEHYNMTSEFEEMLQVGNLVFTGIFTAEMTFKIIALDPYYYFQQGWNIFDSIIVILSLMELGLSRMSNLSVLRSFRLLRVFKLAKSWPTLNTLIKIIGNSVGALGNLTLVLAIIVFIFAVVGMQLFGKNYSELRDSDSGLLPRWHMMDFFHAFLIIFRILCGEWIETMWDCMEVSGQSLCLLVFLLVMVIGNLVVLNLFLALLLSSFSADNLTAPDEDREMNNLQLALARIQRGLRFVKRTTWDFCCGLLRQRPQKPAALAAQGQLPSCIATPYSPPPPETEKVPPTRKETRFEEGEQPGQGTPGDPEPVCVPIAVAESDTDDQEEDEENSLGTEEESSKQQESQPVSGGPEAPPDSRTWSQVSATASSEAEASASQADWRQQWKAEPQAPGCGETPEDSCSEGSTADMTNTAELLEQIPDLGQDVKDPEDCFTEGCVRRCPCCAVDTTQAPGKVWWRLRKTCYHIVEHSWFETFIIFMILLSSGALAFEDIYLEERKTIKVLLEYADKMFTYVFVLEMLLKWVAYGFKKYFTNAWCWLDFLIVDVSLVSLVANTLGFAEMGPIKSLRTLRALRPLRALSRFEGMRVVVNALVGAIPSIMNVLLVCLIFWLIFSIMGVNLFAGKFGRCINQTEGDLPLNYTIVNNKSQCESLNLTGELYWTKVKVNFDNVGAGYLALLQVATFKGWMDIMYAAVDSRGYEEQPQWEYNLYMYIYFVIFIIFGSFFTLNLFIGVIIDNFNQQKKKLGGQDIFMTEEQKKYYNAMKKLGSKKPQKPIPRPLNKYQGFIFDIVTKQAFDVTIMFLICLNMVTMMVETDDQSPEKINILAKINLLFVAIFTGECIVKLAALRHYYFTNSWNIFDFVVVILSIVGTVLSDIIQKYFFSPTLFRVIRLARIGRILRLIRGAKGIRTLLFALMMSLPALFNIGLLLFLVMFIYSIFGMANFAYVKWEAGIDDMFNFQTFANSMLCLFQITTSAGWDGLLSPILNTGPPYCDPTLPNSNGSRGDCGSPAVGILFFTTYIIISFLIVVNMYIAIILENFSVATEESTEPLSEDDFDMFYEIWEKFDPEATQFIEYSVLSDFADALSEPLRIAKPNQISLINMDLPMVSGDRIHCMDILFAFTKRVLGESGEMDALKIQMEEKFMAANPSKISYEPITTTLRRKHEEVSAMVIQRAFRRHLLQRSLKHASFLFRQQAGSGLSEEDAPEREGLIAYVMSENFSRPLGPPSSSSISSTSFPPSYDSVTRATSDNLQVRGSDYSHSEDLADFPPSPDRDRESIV

With `COc1cc(-c2cccc(F)c2)c(Cl)cc1-n1c(=O)ccc2cc(S(=O)(=O)Nc3cccnn3)ccc21` (atropisomer, axis not shown; (P)) [Example 467, (P)-1-(2-chloro-3′-fluoro-5-methoxy-[1,1′-biphenyl]-4-yl)-2-oxo-N-(pyridazin-3-yl)-1,2-dihydroquinoline-6-sulfonamide] the IC50 [1] was greater than 30000 nM and the IC50 [2] was 13 nM.

Work on `COc1cc(-c2cc(F)cc(Cl)c2)c(F)cc1-n1c(=O)ccc2cc(S(=O)(=O)Nc3ccon3)ccc21` (atropisomer, axis not shown; (P)) [Example 477, (P)-1-(3′-chloro-2,5′-difluoro-5-methoxy-4-biphenylyl)-N-3-isoxazolyl-2-oxo-1,2-dihydro-6-quinolinesulfonamide] yielded an IC50 [1] greater than 30000 nM and an IC50 [2] of 7 nM.

`COc1cc(-c2cccc(C(F)(F)F)c2)c(Cl)cc1-n1c(=O)ccc2cc(S(=O)(=O)Nc3ccon3)ccc21` (atropisomer, axis not shown; (P)) [Example 533, (P)-1-(2-chloro-5-methoxy-3′-(trifluoromethyl)-[1,1′-biphenyl]-4-yl)-N-(isoxazol-3-yl)-2-oxo-1,2-dihydroquinoline-6-sulfonamide] gave an IC50 [1] greater than 30000 nM and an IC50 [2] of 4 nM.

Work on `COc1cc(-c2cc(F)cnc2OC)ccc1-n1c(=O)ccc2cc(S(=O)(=O)Nc3ccon3)ccc21` (atropisomer, axis not shown; (P)) [Example 581, (P)-1-(4-(5-fluoro-2-methoxy-3-pyridinyl)-2-methoxyphenyl)-N-3-isoxazolyl-2-oxo-1,2-dihydro-6-quinolinesulfonamide] yielded an IC50 [1] greater than 10000 nM and an IC50 [2] of 102 nM.

`COc1cc(-c2cc(OC)c(-n3c(=O)ccc4cc(S(=O)(=O)Nc5ccon5)ccc43)cc2F)ccc1C` [Example 698, 1-(2-fluoro-3′,5-dimethoxy-4′-methyl-4-biphenylyl)-N-3-isoxazolyl-2-oxo-1,2-dihydro-6-quinolinesulfonamide] gave an IC50 ([1]; in-vitro Nav 1.5 PX data) greater than 10000 nM and an IC50 ([2]; in-vitro Nav 1.7 PX data) of 14 nM.

`COc1cc(Cl)cc(-c2cc(OC)c(-n3c(=O)ccc4cc(S(=O)(=O)Nc5ncccn5)ccc43)cc2F)c1` [Example 924, 1-(3′-chloro-2-fluoro-5,5′-dimethoxy-4-biphenylyl)-2-oxo-N-2-pyrimidinyl-1,2-dihydro-6-quinolinesulfonamide] gave an IC50 ([1]; in-vitro Nav 1.5 PX data) greater than 10000 nM and an IC50 ([2]; in-vitro Nav 1.7 PX data) of 14 nM.

Compound `COc1cc(-c2ccc(F)c(C)c2)c(F)cc1-n1c(=O)ccc2cc(S(=O)(=O)Nc3ccon3)c(F)cc21` [Example 981, 1-(2,4′-difluoro-5-methoxy-3′-methyl-4-biphenylyl)-7-fluoro-N-3-isoxazolyl-2-oxo-1,2-dihydro-6-quinolinesulfonamide] has an IC50 ([1]; in-vitro Nav 1.5 PX data) of 496 nM and an IC50 ([2]; in-vitro Nav 1.7 PX data) of 14 nM.

`COc1cc(-c2ccc(Cl)c(C)c2)c(F)cc1-n1c(=O)ccc2cc(S(=O)(=O)Nc3ncns3)ccc21` [Example 1075, 1-(4′-chloro-2-fluoro-5-methoxy-3′-methyl-4-biphenylyl)-2-oxo-N-1,2,4-thiadiazol-5-yl-1,2-dihydro-6-quinolinesulfonamide] was tested, and the IC50 ([1]; in-vitro Nav 1.5 PX data) was greater than 10000 nM and the IC50 ([2]; in-vitro Nav 1.7 PX data) was 4 nM.

Reference: patent publication US9212182B2, “Bicyclic sulfonamide compounds as sodium channel inhibitors” (AMGEN INC., priority 2013, dated 2015)
